# Results: ChEMBL document CHEMBL3352411, “Structure-activity relationships (SAR) and structure-kinetic relationships (SKR) of bicyclic heteroaromatic acetic acids as potent CRTh2 antagonists II: lead optimization” (Bioorg Med Chem Lett, 2014)
# Target: T1, Prostaglandin D2 receptor 2 (Homo sapiens, UniProt Q9Y5Y4)
# T1 sequence (Q9Y5Y4 whole entry): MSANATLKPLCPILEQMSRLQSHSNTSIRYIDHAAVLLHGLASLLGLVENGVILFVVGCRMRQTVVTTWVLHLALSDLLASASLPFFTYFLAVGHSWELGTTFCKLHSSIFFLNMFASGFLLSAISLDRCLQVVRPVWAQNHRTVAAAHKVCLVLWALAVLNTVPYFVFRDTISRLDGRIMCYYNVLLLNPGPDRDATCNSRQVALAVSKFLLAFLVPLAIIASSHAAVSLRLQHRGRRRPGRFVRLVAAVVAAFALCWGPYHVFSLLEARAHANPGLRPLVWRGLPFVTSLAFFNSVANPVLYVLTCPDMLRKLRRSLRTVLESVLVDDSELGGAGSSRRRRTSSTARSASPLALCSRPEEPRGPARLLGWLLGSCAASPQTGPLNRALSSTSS
# Test: Antagonist activity at CRTh2 receptor (unknown origin) overexpressed in CHOK1 cell membranes assessed as inhibition of [35S]-GTPgammaS binding measured after 2 hrs by liquid scintillation counting analysis
# Type: functional, CHO-K1
# Conditions: not given
row,SMILES,IC50
1,CCN(Cc1cc(C(F)(F)F)ccc1-n1cc(CC(=O)O)c2ccc(C)nc21)C(=O)NCc1ccccc1,5 nM
2,CCN(Cc1cc(C(F)(F)F)ccc1-c1nn(CC(=O)O)c2cccc(F)c12)C(=O)C1CC1,4.3 nM
3,CCN(Cc1cc(C(F)(F)F)ccc1-n1cc(CC(=O)O)c2ccc(C3CC3)nc21)C(=O)C1CC1,49 nM
4,CCN(Cc1cc(C(F)(F)F)ccc1-c1nn(CC(=O)O)c2cccc(C#N)c12)C(=O)C1CC1,33 nM
5,Cc1ccc2c(CC(=O)O)cn(-c3ccc(C(F)(F)F)cc3CN(CC3CC3)C(=O)C3CC3)c2n1,11 nM
6,CCN(Cc1cc(S(C)(=O)=O)ccc1-n1cc(CC(=O)O)c2ccc(C)nc21)C(=O)C1CC1,40 nM
7,CCN(Cc1cc(C(F)(F)F)ccc1-n1cc(CC(=O)O)c2ccc(C)nc21)C(=O)C1CCC1,10 nM
8,CCN(Cc1cc(OC(F)(F)F)ccc1-n1cc(CC(=O)O)c2ccc(C)nc21)C(=O)C1CC1,5.8 nM
9,CCN(Cc1cc(C(F)(F)F)ccc1-c1nn(CC(=O)O)c2ccccc12)C(=O)C1CC1,19 nM
10,CCN(Cc1cc(C(F)(F)F)ccc1-n1cc(CC(=O)O)c2ccc(C)nc21)C(=O)COC,9 nM
11,CCN(Cc1cc(C(F)(F)F)ccc1-n1cc(CC(=O)O)c2ccc(C)nc21)C(=O)CN(C)C,163 nM
12,CCN(Cc1cc(C(F)(F)F)ccc1-n1cc(CC(=O)O)c2ccc(C)nc21)C(=O)CC1CC1,7 nM
13,CCN(Cc1cc(C(F)(F)F)ccc1-n1cc(CC(=O)O)c2ccc(C)cc21)C(=O)C1CC1,119 nM
14,CCN(Cc1cc(C(F)(F)F)ccc1-c1nn(CC(=O)O)c2cc(F)ccc12)C(=O)C1CC1,127 nM
15,CCN(Cc1cc(Cl)ccc1-n1cc(CC(=O)O)c2ccc(C)nc21)C(=O)C1CC1,5.2 nM

# Target: T2, Prostaglandin D2 receptor 2 (Homo sapiens) (UniProt Q9Y5Y4)
# T2 sequence (whole entry): T1 sequence (Q9Y5Y4 whole entry)
# Test: Binding affinity to CRTh2 receptor (unknown origin) overexpressed in CHOK1 cell membranes assessed as dissociation half life at 10 times IC50 concentration preincubated for 1 hr with 0.1 nM to 100 uM PGD2 and [35S]-GTPgammaS by liquid scintillation counting analysis
# Type: functional
# Conditions: CHO-K1
row,SMILES,T1/2
1,CCN(Cc1ccccc1-n1cc(CC(=O)O)c2ccc(C)nc21)C(=O)C1CC1,8.8 h
2,CCN(Cc1cc(C(F)(F)F)ccc1-n1cc(CC(=O)O)c2ccc(C)nc21)C(C)=O,6.4 h
3,CCN(Cc1cc(C(F)(F)F)ccc1-c1cc(CC(=O)O)n2ccc(C)nc12)C(=O)C1CC1,19 h
4,CCN(Cc1cc(C(F)(F)F)ccc1-c1nn(CC(=O)O)c2ccc(Cl)cc12)C(=O)C1CC1,2.8 h
5,CCN(Cc1cc(C(F)(F)F)ccc1-c1nn(CC(=O)O)c2cccc(C)c12)C(=O)C1CC1,2.3 h
6,CCN(Cc1cc(C(F)(F)F)ccc1-n1cc(CC(=O)O)c2ccc(C)nc21)C(=O)NCc1ccccc1,26 h
7,CCN(Cc1cc(C(F)(F)F)ccc1-c1nn(CC(=O)O)c2cccc(F)c12)C(=O)C1CC1,5 h
8,CCN(Cc1cc(C(F)(F)F)ccc1-n1cc(CC(=O)O)c2ccc(C3CC3)nc21)C(=O)C1CC1,5.4 h
9,CCN(Cc1cc(C(F)(F)F)ccc1-c1nn(CC(=O)O)c2cccc(C#N)c12)C(=O)C1CC1,1.2 h
10,CCN(Cc1cc(C(F)(F)F)ccc1-n1cc(CC(=O)O)c2ccccc21)C(=O)C1CC1,2.5 h
11,Cc1ccc2c(CC(=O)O)cn(-c3ccc(C(F)(F)F)cc3CN(CC3CC3)C(=O)C3CC3)c2n1,32 h
12,CCN(Cc1cc(C(F)(F)F)ccc1-c1nn(CC(=O)O)c2ccc(F)cc12)C(=O)C1CC1,1.4 h
13,CCN(Cc1cc(C(F)(F)F)ccc1-c1nn(CC(=O)O)c2ccc(F)c(Cl)c12)C(=O)C1CC1,3.3 h
14,CCN(Cc1cc(C(F)(F)F)ccc1-n1cc(CC(=O)O)c2cccnc21)C(=O)C1CC1,2.3 h
15,CCN(Cc1cc(F)ccc1-n1cc(CC(=O)O)c2cccnc21)C(=O)C1CC1,1.3 h
16,CCN(Cc1cc(C(F)(F)F)ccc1-n1cc(CC(=O)O)c2ccc(C)nc21)C(=O)C1CCC1,24 h
17,CCN(Cc1cc(OC(F)(F)F)ccc1-n1cc(CC(=O)O)c2ccc(C)nc21)C(=O)C1CC1,16 h
18,CCN(Cc1cc(C(F)(F)F)ccc1-n1cc(CC(=O)O)c2ccc(C)nc21)C(=O)COC,21 h
19,CCN(Cc1cc(C(F)(F)F)ccc1-n1cc(CC(=O)O)c2ccc(C)nc21)C(=O)CC1CC1,22 h
20,CCN(Cc1cc(Cl)ccc1-n1cc(CC(=O)O)c2ccc(C)nc21)C(=O)C1CC1,31 h
